Laboratory results as given in patent publication US20220390432A1, “METHODS OF CHARACTERIZING AND UTILIZING AGENT-CONDENSATE INTERACTIONS” (Whitehead Institute for Biomedical Research, priority 2019, published 2022).

Molecular target: T1, MED1 condensates (Homo sapiens, UniProt Q15648)
T1 construct: MED1—amino acids 600-1581; 6xHis (N); made in house; host or cells: LOBSTR cells (E. coli)
Experiment: Determination of partitioning by spectrophotometry and quantitative phase microscopy
Assay type: binding
Excerpt: Here, an expression is derived briefly for the partition coefficient of a client molecule into a condensed phase in terms of quantities that are readily measurable experimentally. A sample composed of two coexisting phases is considered, named dilute and condensed, with volume fractions ϕdilute and […]. If a client molecule (e.g. a drug) is also present in the sample at an average concentration of ctotal, then mass conservation requires that
the ratio is estimated ctotal/cdilute from fluorescence spectroscopy measurements, as described in a subsequent section, while ϕcond, it is inferred from the lever rule (M. Rubinstein, R. H. Colby, Polymer Phyics (Oxford University Press, 2003) as follows: denoting the concentration of scaffold protein (e.g. MED1) by s, mass conservation gives stotal=sdiluteϕdilute+scondϕcond, in analogy with Eq. 1. Again using the requirement that the volume fractions of coexisting phases sum to 1, this can be rearranged to yield
where stotal and sdilute are measured spectrophotometrically from optical absorbance at 280 nm, and scond is measured from quantitative phase microscopy, using a coherence-controlled holographic microscope (Q-Phase, Telight (formerly TESCAN), Bmo, CZ) equipped with 40× dry objectives (NA=0.90). […]
where A is the measured absorbance (in Absorbance Units (AU)), I0 is the intensity of the incident light at a given wavelength, I is the transmitted intensity, L the path length through the sample, and c the concentration of the absorbing species. […] The partitioned drug was measured by using spin down assay. […] The supernatant was collected and measured the concentrations of the drug. The partitioned drug was calculated by subtracting from the total known concentration of drug added.
Quantitative phase measurements were performed using a coherence-controlled holographic microscope (Q-Phase, Telight (formerly TESCAN), Brno, CZ) equipped with 40× dry objectives (NA=0.90) as follows. […]
Q-PHASE software was used to construct compensated phase images from acquired holograms, which were subsequently analyzed in MATLAB using custom code. […]

T1 sequence (Q15648 600-1581): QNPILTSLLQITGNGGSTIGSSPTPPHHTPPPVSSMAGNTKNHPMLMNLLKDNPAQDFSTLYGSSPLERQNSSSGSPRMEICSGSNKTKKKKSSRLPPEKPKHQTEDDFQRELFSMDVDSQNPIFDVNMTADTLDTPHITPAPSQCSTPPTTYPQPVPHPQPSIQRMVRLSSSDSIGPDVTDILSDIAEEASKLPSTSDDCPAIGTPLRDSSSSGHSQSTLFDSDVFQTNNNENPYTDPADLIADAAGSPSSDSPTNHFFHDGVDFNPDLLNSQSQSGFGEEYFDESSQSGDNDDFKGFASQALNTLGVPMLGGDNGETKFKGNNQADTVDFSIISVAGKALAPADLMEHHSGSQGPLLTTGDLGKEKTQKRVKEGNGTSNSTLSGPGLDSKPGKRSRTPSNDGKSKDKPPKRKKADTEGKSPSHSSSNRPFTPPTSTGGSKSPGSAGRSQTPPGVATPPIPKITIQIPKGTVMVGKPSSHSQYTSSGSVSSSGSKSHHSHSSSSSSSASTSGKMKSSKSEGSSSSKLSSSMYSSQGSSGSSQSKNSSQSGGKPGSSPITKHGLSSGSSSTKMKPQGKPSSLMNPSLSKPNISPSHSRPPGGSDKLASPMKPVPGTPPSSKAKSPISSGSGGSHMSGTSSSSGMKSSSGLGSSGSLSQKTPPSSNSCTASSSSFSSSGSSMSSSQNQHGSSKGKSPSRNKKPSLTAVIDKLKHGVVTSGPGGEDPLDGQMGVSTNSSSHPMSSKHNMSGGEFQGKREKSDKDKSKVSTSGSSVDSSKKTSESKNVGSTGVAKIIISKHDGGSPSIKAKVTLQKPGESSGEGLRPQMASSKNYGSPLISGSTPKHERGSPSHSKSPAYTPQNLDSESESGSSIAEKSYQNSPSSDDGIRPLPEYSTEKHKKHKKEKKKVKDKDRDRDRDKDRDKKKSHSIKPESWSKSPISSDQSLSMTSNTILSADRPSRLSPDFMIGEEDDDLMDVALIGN

N.N.[Cl][Pt][Cl] [cisplatin]
partition coefficient in MED1 droplets: up to 600
partition ratio in MED1 condensates (uv spectroscopy of drug remaining in solution plus condensate volume estimate): up to 600 fold
